Laboratory results reported in patent US8192962B2, “Processes for detecting toxic substances” (Daikin Industries, Ltd., priority 2001, dated 2012).

Test system: DNA repair protein genes
Experiment: DNA chip mRNA expression in yeast, DNA repair protein genes (Table 3)
Assay type: cell-based, Saccharomyces cerevisiae S288C
Details: incubated two hours, concentrations as in the 1st table
Summary of the method: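 First, S288C yeast grown in YPD at 25° C. are dosed in log phase with one toxicant (growth-inhibiting, not lethal) for 2 h. Next, total RNA is extracted and poly(A) mRNA isolated and reverse-transcribed with Cy3/Cy5-dUTP. Finally, whole-genome chip fluorescence is read relative to unexposed cells.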

SMILES: C=CC=O [(14), acrolein]
- The level of expressed mRNA in the presence of chemical substance/The level of expressed mRNA in the absence of chemical substance (yeast gene YAL015C): 1.6
- The level of expressed mRNA in the presence of chemical substance/The level of expressed mRNA in the absence of chemical substance (yeast gene YAR007C): 1.4
- The level of expressed mRNA in the presence of chemical substance/The level of expressed mRNA in the absence of chemical substance (yeast gene YBL019W): 1.1
- The level of expressed mRNA in the presence of chemical substance/The level of expressed mRNA in the absence of chemical substance (yeast gene YBR073W): 1.0
- The level of expressed mRNA in the presence of chemical substance/The level of expressed mRNA in the absence of chemical substance (yeast gene YBR272C): 1.0
- The level of expressed mRNA in the presence of chemical substance/The level of expressed mRNA in the absence of chemical substance (yeast gene YCR014C): 1.0
- The level of expressed mRNA in the presence of chemical substance/The level of expressed mRNA in the absence of chemical substance (yeast gene YDL017W): 1.3
- The level of expressed mRNA in the presence of chemical substance/The level of expressed mRNA in the absence of chemical substance (yeast gene YDL059C): 4.7
- The level of expressed mRNA in the presence of chemical substance/The level of expressed mRNA in the absence of chemical substance (yeast gene YDL200C): 1.8
- The level of expressed mRNA in the presence of chemical substance/The level of expressed mRNA in the absence of chemical substance (yeast gene YDR054C): 1.1
- The level of expressed mRNA in the presence of chemical substance/The level of expressed mRNA in the absence of chemical substance (yeast gene YDR369C): 0.7
- The level of expressed mRNA in the presence of chemical substance/The level of expressed mRNA in the absence of chemical substance (yeast gene YEL019C): 1.7
- The level of expressed mRNA in the presence of chemical substance/The level of expressed mRNA in the absence of chemical substance (yeast gene YEL037C): 1.0
- The level of expressed mRNA in the presence of chemical substance/The level of expressed mRNA in the absence of chemical substance (yeast gene YER162C): 0.8
- The level of expressed mRNA in the presence of chemical substance/The level of expressed mRNA in the absence of chemical substance (yeast gene YFL014W): 7.3
- The level of expressed mRNA in the presence of chemical substance/The level of expressed mRNA in the absence of chemical substance (yeast gene YGL058W): 1.3
- The level of expressed mRNA in the presence of chemical substance/The level of expressed mRNA in the absence of chemical substance (yeast gene YGL091C): 3.1
- The level of expressed mRNA in the presence of chemical substance/The level of expressed mRNA in the absence of chemical substance (yeast gene YGL127C): 1.0
- The level of expressed mRNA in the presence of chemical substance/The level of expressed mRNA in the absence of chemical substance (yeast gene YGL163C): 1.6
- The level of expressed mRNA in the presence of chemical substance/The level of expressed mRNA in the absence of chemical substance (yeast gene YGL249W): 1.9
- The level of expressed mRNA in the presence of chemical substance/The level of expressed mRNA in the absence of chemical substance (yeast gene YGR180C): 0.9
- The level of expressed mRNA in the presence of chemical substance/The level of expressed mRNA in the absence of chemical substance (yeast gene YGR231C): 2.2
- The level of expressed mRNA in the presence of chemical substance/The level of expressed mRNA in the absence of chemical substance (yeast gene YGR258C): 1.2
- The level of expressed mRNA in the presence of chemical substance/The level of expressed mRNA in the absence of chemical substance (yeast gene YHR164C): 1.3
- The level of expressed mRNA in the presence of chemical substance/The level of expressed mRNA in the absence of chemical substance (yeast gene YIL036W): 1.1
- The level of expressed mRNA in the presence of chemical substance/The level of expressed mRNA in the absence of chemical substance (yeast gene YIL072W): 2.0
- The level of expressed mRNA in the presence of chemical substance/The level of expressed mRNA in the absence of chemical substance (yeast gene YIL143C): 1.0
- The level of expressed mRNA in the presence of chemical substance/The level of expressed mRNA in the absence of chemical substance (yeast gene YIL153W): 1.0
- The level of expressed mRNA in the presence of chemical substance/The level of expressed mRNA in the absence of chemical substance (yeast gene YIR002C): 1.1
- The level of expressed mRNA in the presence of chemical substance/The level of expressed mRNA in the absence of chemical substance (yeast gene YJL026W): 1.0
- The level of expressed mRNA in the presence of chemical substance/The level of expressed mRNA in the absence of chemical substance (yeast gene YJR046W): 1.0
- The level of expressed mRNA in the presence of chemical substance/The level of expressed mRNA in the absence of chemical substance (yeast gene YJR052W): 1.4
- The level of expressed mRNA in the presence of chemical substance/The level of expressed mRNA in the absence of chemical substance (yeast gene YKL145W): 1.0
- The level of expressed mRNA in the presence of chemical substance/The level of expressed mRNA in the absence of chemical substance (yeast gene YLR103C): 1.0
- The level of expressed mRNA in the presence of chemical substance/The level of expressed mRNA in the absence of chemical substance (yeast gene YLR233C): 1.1
- The level of expressed mRNA in the presence of chemical substance/The level of expressed mRNA in the absence of chemical substance (yeast gene YLR288C): 1.2
- The level of expressed mRNA in the presence of chemical substance/The level of expressed mRNA in the absence of chemical substance (yeast gene YML032C): 1.0
- The level of expressed mRNA in the presence of chemical substance/The level of expressed mRNA in the absence of chemical substance (yeast gene YML058W): 1.1
- The level of expressed mRNA in the presence of chemical substance/The level of expressed mRNA in the absence of chemical substance (yeast gene YMR035W): 1.3
- The level of expressed mRNA in the presence of chemical substance/The level of expressed mRNA in the absence of chemical substance (yeast gene YMR072W): 1.2
- The level of expressed mRNA in the presence of chemical substance/The level of expressed mRNA in the absence of chemical substance (yeast gene YMR096W): 4.7
- The level of expressed mRNA in the presence of chemical substance/The level of expressed mRNA in the absence of chemical substance (yeast gene YMR284W): 1.2
- The level of expressed mRNA in the presence of chemical substance/The level of expressed mRNA in the absence of chemical substance (yeast gene YNL213C): 1.8
- The level of expressed mRNA in the presence of chemical substance/The level of expressed mRNA in the absence of chemical substance (yeast gene YNL250W): 1.6
- The level of expressed mRNA in the presence of chemical substance/The level of expressed mRNA in the absence of chemical substance (yeast gene YNL261W): 1.4
- The level of expressed mRNA in the presence of chemical substance/The level of expressed mRNA in the absence of chemical substance (yeast gene YNL312W): 1.1
- The level of expressed mRNA in the presence of chemical substance/The level of expressed mRNA in the absence of chemical substance (yeast gene YOL043C): 1.5
- The level of expressed mRNA in the presence of chemical substance/The level of expressed mRNA in the absence of chemical substance (yeast gene YOR005C): 1.2
- The level of expressed mRNA in the presence of chemical substance/The level of expressed mRNA in the absence of chemical substance (yeast gene YOR386W): 0.9
- The level of expressed mRNA in the presence of chemical substance/The level of expressed mRNA in the absence of chemical substance (yeast gene YPL022W): 0.9
- The level of expressed mRNA in the presence of chemical substance/The level of expressed mRNA in the absence of chemical substance (yeast gene YPL164C): 0.9
- The level of expressed mRNA in the presence of chemical substance/The level of expressed mRNA in the absence of chemical substance (yeast gene YPL194W): 1.1
- The level of expressed mRNA in the presence of chemical substance/The level of expressed mRNA in the absence of chemical substance (yeast gene YPR025C): 1.3

SMILES: C[S+](C)[O-] [(15), dimethylsulfoxide]
- The level of expressed mRNA in the presence of chemical substance/The level of expressed mRNA in the absence of chemical substance (yeast gene YBR272C): 0.5
- The level of expressed mRNA in the presence of chemical substance/The level of expressed mRNA in the absence of chemical substance (yeast gene YCR014C): 0.7
- The level of expressed mRNA in the presence of chemical substance/The level of expressed mRNA in the absence of chemical substance (yeast gene YDL059C): 0.7
- The level of expressed mRNA in the presence of chemical substance/The level of expressed mRNA in the absence of chemical substance (yeast gene YDR054C): 1.6
- The level of expressed mRNA in the presence of chemical substance/The level of expressed mRNA in the absence of chemical substance (yeast gene YEL037C): 1.6
- The level of expressed mRNA in the presence of chemical substance/The level of expressed mRNA in the absence of chemical substance (yeast gene YGL091C): 0.7
- The level of expressed mRNA in the presence of chemical substance/The level of expressed mRNA in the absence of chemical substance (yeast gene YGL249W): 0.7
- The level of expressed mRNA in the presence of chemical substance/The level of expressed mRNA in the absence of chemical substance (yeast gene YGR180C): 1.3
- The level of expressed mRNA in the presence of chemical substance/The level of expressed mRNA in the absence of chemical substance (yeast gene YIL072W): 1.4
- The level of expressed mRNA in the presence of chemical substance/The level of expressed mRNA in the absence of chemical substance (yeast gene YIL143C): 1.3
- The level of expressed mRNA in the presence of chemical substance/The level of expressed mRNA in the absence of chemical substance (yeast gene YNL250W): 1.3
- The level of expressed mRNA in the presence of chemical substance/The level of expressed mRNA in the absence of chemical substance (yeast gene YNL261W): 0.7
- The level of expressed mRNA in the presence of chemical substance/The level of expressed mRNA in the absence of chemical substance (yeast gene YPL164C): 1.3
